ChEMBL document CHEMBL1149799, “Bioactive peroxides as potential therapeutic agents” (Eur J Med Chem, 2008)
Values after ≈ are worked out from the molar mass of the structure shown.

Assays:
P388 [1] = experiment: Cytotoxicity against mouse P388 cells at 0.05 ug/ml; assay type: functional
L1210 = experiment: Cytotoxicity against mouse L1210 cells; assay type: functional, cell-based; conditions: Mus musculus, L1210
KB = experiment: Cytotoxicity against human KB cells; assay type: functional, cell-based; conditions: Homo sapiens, KB; for EC50: read-out: ED50 (the source's name)
Plasmodium falciparum = experiment: Antimalarial activity against Plasmodium falciparum W2; assay type: functional, organism-based
A549 [2] = experiment: Cytotoxicity against human A549 cells; assay type: functional, cell-based; conditions: Homo sapiens, A549; for EC50: read-out: ED50 (the source's name)
P388 [3] = experiment: Cytotoxicity against mouse P388 cells; assay type: functional, cell-based; conditions: Mus musculus, P388; read-out: ED50 (the source's name)
[4] = Cytotoxicity against human […] cells; assay type: functional; conditions: read-out: ED50 (the source's name)
HT-29 = experiment: Cytotoxicity against human HT29 cells; assay type: functional, cell-based; conditions: Homo sapiens, HT-29
MDA-MB-231 = experiment: Cytotoxicity against human MDA-MB-231 cells; assay type: functional, cell-based
Candida albicans = experiment: Antifungal activity against Candida albicans; assay type: functional
HL-60 = experiment: Cytotoxicity against human HL60 cells by soft agar assay; assay type: functional
MOLT-4 = experiment: Cytotoxicity against human MOLT4 cells by soft agar assay; assay type: functional
786-0 = experiment: Cytotoxicity against human renal 7860 cells by soft agar assay; assay type: functional
A549 [5] = experiment: Cytotoxicity against human A549 cells by soft agar assay; assay type: functional
KM12 = experiment: Cytotoxicity against human KM12 cells by soft agar assay; assay type: functional
[6] = Cytotoxicity against human IGRO cells by soft agar assay; assay type: functional
[7] = Cytotoxicity against human LOX cells by soft agar assay; assay type: functional
HeLa = experiment: Cytotoxicity against human HeLa cells; assay type: functional, cell-based
[8] = Cytotoxicity against mouse Ehrlich Ascites carcinoma by […] assay; assay type: functional
[9] = Cytotoxicity against human CFUGM; assay type: functional; conditions: CFU-GM
[10] = Cytotoxicity against mouse Ehrlich Ascites carcinoma by clonogenic assay; assay type: functional
BT-549 = experiment: Cytotoxicity against human BT549 cells by soft agar assay; assay type: functional
WEHI-164 = experiment: Cytotoxicity against mouse WEHI164 cells; assay type: functional, cell-based

Q: With CCCCCCCCCCCCCCC[C@@]1(OC)C=C[C@H](CC(=O)OC)OO1 [PLAKORIN] as the compound, how does the inhibition at 0.05 µg/mL (P388 [1]) read?
A: 50%

Q: What about the IC50 (L1210) of the same compound?
A: 0.85 µg/mL (≈ 2.13 µM)

Q: What about the IC50 (KB) of the same compound?
A: 1.8 µg/mL (≈ 4.52 µM)

Q: With CCC/C=C/[C@]1(CC)C[C@H](CC)[C@H](CC(=O)OC)OO1 [PLAKORTIDE K] as the compound, how does the IC50 (Plasmodium falciparum) read?
A: 0.57 µg/mL (≈ 2 µM)

Q: Which EC50 (A549 [2]) does the source give for CC(C)/C(=C\COO)CC[C@@H](C)[C@H]1CC[C@@H]2[C@@H]1CC[C@H]1[C@H]2CC=C2C[C@@H](O)CC[C@@]21C here?
A: 2.2 µg/mL (≈ 5.11 µM)

Q: And the EC50 (P388 [3])?
A: 0.5 µg/mL (≈ 1.16 µM)

Q: And the EC50 [4]?
A: 5 µg/mL (≈ 11.6 µM)

Q: And the EC50 (KB)?
A: 2.2 µg/mL (≈ 5.11 µM)

Q: With CC/C=C/C(CC)CC(C)C[C@]1(CC)C[C@H](CC)[C@H](CC(=O)OC)OO1 (stereo not given in full) as the compound, how does the IC50 (A549 [2]) read?
A: 6.8 µM

Q: And the IC50 (HT-29)?
A: 12.8 µM

Q: What about the IC50 (MDA-MB-231) of the same compound?
A: 4.1 µM

Q: With CC(CCCCCC/C=C\C=C\c1ccccc1)C[C@]1(C)C[C@](C)(CC(=O)O)OO1 (stereo not given in full) as the compound, how does the MIC (Candida albicans) read?
A: 1.6 µg/mL (≈ 3.86 µM)

Q: For C=C(C)[C@@H](CC)CC[C@@H](C)[C@H]1CC[C@@H]2[C@@H]1CC[C@H]1[C@H]2[C@@H](OO)C=C2C[C@@H](O)CC[C@@]21C, which EC50 (A549 [2]) is on record?
A: 0.5 µg/mL (≈ 1.16 µM)

Q: What about the EC50 (P388 [3]) of the same compound?
A: 0.4 µg/mL (≈ 0.929 µM)

Q: What about the EC50 [4] of the same compound?
A: 1 µg/mL (≈ 2.32 µM)

Q: And the EC50 (KB)?
A: 1 µg/mL (≈ 2.32 µM)

Q: With C/C=C/CCCCCCCCC[C@]1(OC)C=C[C@H](CC(=O)OC)OO1 as the compound, how does the inhibition at 0.05 µg/mL (P388 [1]) read?
A: 50%

Q: Which GI50 (HL-60) does the source give for C=C1CCCC(C)(C)C1(O)CC/C(C)=C/CC[C@]1(C)CC[C@@H]([C@@H](C)C(=O)OC)OO1 (stereo not given in full) [MUQUBILIN B] here?
A: > 5 µM

Q: What about the GI50 (MOLT-4) of the same compound?
A: > 5 µM

Q: And the GI50 (786-0)?
A: > 5 µM

Q: What about the GI50 (A549 [5]) of the same compound?
A: > 5 µM

Q: And the GI50 (KM12)?
A: > 5 µM

Q: And the GI50 [6]?
A: 2420 nM

Q: And the GI50 [7]?
A: > 5000 nM

Q: Which IC50 (HeLa) does the source give for C[C@H](C(=O)O)[C@@H]1CC[C@@](C)(CC[C@@]2(C)C3=CCCC(C)(C)[C@@H]3CC[C@H]2C)OO1 [MYCAPEROXIDE H] here?
A: 0.8 µg/mL (≈ 2.04 µM)

Q: Which results are given for CCCCC(CC)CC(C)C[C@]1(CC)C[C@H](CC)[C@H](CC(=O)OC)OO1 (stereo not given in full) [PLAKORITIDE Q ME]?
A: IC50 (A549 [2]): 7.8 µM; IC50 (HT-29): 13 µM; IC50 (MDA-MB-231): 18.4 µM

Q: Which results are given for C=CC(C[C@@H](C)[C@H]1CC[C@H]2[C@@H]3CC=C4C[C@@H](O)CC[C@]4(C)[C@H]3CC[C@]12C)(OO)C(C)C (stereo not given in full)?
A: EC50 (A549 [2]): 7.1 µg/mL (≈ 16.5 µM); EC50 (P388 [3]): 0.3 µg/mL (≈ 0.697 µM); EC50 [4]: 5.9 µg/mL (≈ 13.7 µM); EC50 (KB): 1.8 µg/mL (≈ 4.18 µM)

Q: With C=C1CCCC(C)(C)C1CC[C@]1(C)CC[C@H]([C@@H](C)C(=O)OC)OO1 (stereo not given in full) [NUAPAPUIN B] as the compound, how does the GI50 (MOLT-4) read?
A: > 5 µM

Q: What about the GI50 [6] of the same compound?
A: 500 nM

Q: And the GI50 [7]?
A: 470 nM

Q: Which IC50 (HeLa) does the source give for C=C[C@@H](O)C#CC#C/C=C/C(CCCCCCC)OO (stereo not given in full) [GINSENOYNE K] here?
A: 10.5 µg/mL (≈ 38 µM)

Q: And the IC50 (L1210)?
A: 1.8 µg/mL (≈ 6.51 µM)

Q: With C=C1C(=O)O[C@@H]2O[C@@]3(C)CC[C@H]4[C@H](C)CC[C@@H]1[C@@]24OO3 as the compound, how does the IC50 [8] read?
A: 11.3 µM

Q: And the IC50 [9]?
A: 1.7 µM

Q: And the IC50 [10]?
A: 10 µM

Q: With CC1=C(CC/C(C)=C/CC[C@@]2(C)CC[C@@H]([C@H](C)C(=O)O)OO2)C(C)(C)CCC1 [EPIMUQUBILIN A] as the compound, how does the GI50 (HL-60) read?
A: > 5 µM

Q: What about the GI50 (MOLT-4) of the same compound?
A: > 5 µM

Q: What about the GI50 (786-0) of the same compound?
A: > 5 µM

Q: What about the GI50 (A549 [5]) of the same compound?
A: > 5 µM

Q: And the GI50 (KM12)?
A: > 5 µM

Q: And the GI50 (BT-549)?
A: > 5 µM

Q: What about the GI50 [6] of the same compound?
A: > 5000 nM

Q: And the GI50 [7]?
A: > 5000 nM

Q: Which IC50 (WEHI-164) does the source give for CCCCC(CC)C/C(C)=C/[C@@]1(CC)C[C@@H](CC)[C@@H](CC(=O)OC)OO1 (stereo not given in full) here?
A: 9.5 µg/mL (≈ 25.8 µM)

Q: With C/C=C/C=C/CCCCCCC[C@]1(OC)C=C[C@H](CC(=O)OC)OO1 as the compound, how does the inhibition at 0.05 µg/mL (P388 [1]) read?
A: 50%

Q: For C=C1CCCC(C)(C)C1(O)CC/C(C)=C/CC[C@]1(C)CC[C@H]([C@@H](C)C(=O)OC)OO1 (stereo not given in full) [EPIMUQUBILIN B], which GI50 (HL-60) is on record?
A: > 5 µM

Q: And the GI50 (MOLT-4)?
A: > 5 µM

Q: And the GI50 (786-0)?
A: > 5 µM

Q: And the GI50 (A549 [5])?
A: > 5 µM

Q: And the GI50 (KM12)?
A: > 5 µM

Q: And the GI50 (BT-549)?
A: > 5 µM

Q: What about the GI50 [6] of the same compound?
A: > 5000 nM

Q: With C[C@@H]1CC[C@H]2[C@@H](C)C(=O)O[C@@H]3O[C@@]4(C)CC[C@@H]1[C@]32OO4 [ARTEMISININ] as the compound, how does the IC50 [8] read?
A: > 723 µM

Q: And the IC50 [9]?
A: 385 µM

Q: What about the IC50 [10] of the same compound?
A: > 1000 µM
